Measurements taken from publication PMC4368788, “Depsides: Lichen Metabolites Active against Hepatitis C Virus” (PLoS ONE, 2015).
Entries after “also recorded” stand apart in the source; their conditions may differ. Like-named read-outs stand apart in the source and are kept apart here.

What was measured:
HCVcc [1] = test: Anti-HCV activity: HCVcc expressing Renilla luciferase in Huh-7.5.1 cells, luciferase readout; type: cell-based, hepatitis C virus; conditions: for IC50: Hepatitis C virus, Huh-7.5.1 cells infected with HCVcc, 1 h preincubation then 48 h with virus, mean ± SEM, three experiments; for Anti-HCV activity: HCVcc in Huh-7.5.1 cells, up to 100 μM
Experimental: Huh-7.5.1 cells were maintained in Dulbecco's modified Eagle's medium (DMEM) containing 4.5 g/l D-glucose, 4 mM L-glutamine (Life Technologies), supplemented with 100 units/mL penicillin (Life Technologies), 100 μg/mL streptomycin (Life Technologies), non-essential amino acids (Sigma-Aldrich), 1 mM Hepes (Life Technologies) and 10% heat-inactivated fetal calf serum (FCS, Hyclone). […] In cell viability and HCV in vitro propagation experiments, the final concentration of DMSO was systematically adjusted to 0.1%. We checked that this amount of DMSO had no effect on the biological cycle of HCVcc in vitro (data not shown).
(§1) HCVcc was generated from the FL-J6/JFH-5’C19Rluc2AUbi construct, a monocistronic, full-length HCV genome that expresses Renilla luciferase. It was produced and titrated as described elsewhere, except for the readout for luciferase activity measurement. Cell viability was evaluated with the Cell Proliferation Reagent WST-1 (Roche), according to the manufacturer’s instructions. Luciferase assays were performed according to the manufacturer’s instructions (Promega) and measurements were performed on a Centro XS3 LB960 luminometer (Berthold Technologies).
(§2) Cell viability and viral replication data from at least three independent experiments were analyzed. The IC50 values of the compounds were determined from dose-response curves generated with seven to 12 concentrations of each compound. Curves were fitted to the data points by nonlinear regression analysis and IC50 values were interpolated from the resulting curves with GraphPad Prism 5.00 software.
We evaluated the anti-HCV activity of the 10 atranorin-related compounds, using a virus grown in cell culture (HCVcc) with a modification of its genome resulting in expression of the Renilla luciferase reporter gene. […] These two compounds are known to interfere with the entry and replication steps of viral cycle, respectively. The maximum dose of each tested compound was 100 μM, because most of these molecules became insoluble in aqueous solution at higher concentrations. The first experimental procedure used involved the preincubation of human hepatic Huh-7.5.1 cells for 1 h with various doses of the molecules. The cells were then cultured in the presence of both the molecules tested and the virus, for an additional 48 h. At the end of the incubation period, we assessed cell viability and viral replication. This protocol made it possible to test the effects of molecules on both virus entry and replication. […] Remarkably, compound 6 tended to give a slightly, but reproducibly higher viability signal when used at high doses, with a peak at about 50 μM. […] At concentrations greater than 50 μM, cytotoxic effects emerged, as shown by the decrease of the viability signal.

in vitro = type: cell-based, human; conditions: human, mean ± SEM; for CC50 at 48 h: half-maximal cytotoxicity concentration, Huh-7.5.1 cells, maximum dose tested 100 μM; for viability at 48 h, 50 µM / viability at 48 h, 100 µM: percentage of vehicle (0.1% DMSO) control; for viability at 48 h, 10 µM: 10 μM (controls)
Experimental: (§3) Huh-7.5.1 cells were maintained in Dulbecco's modified Eagle's medium (DMEM) containing 4.5 g/l D-glucose, 4 mM L-glutamine (Life Technologies), supplemented with 100 units/mL penicillin (Life Technologies), 100 μg/mL streptomycin (Life Technologies), non-essential amino acids (Sigma-Aldrich), 1 mM Hepes (Life Technologies) and 10% heat-inactivated fetal calf serum (FCS, Hyclone). […] In cell viability and HCV in vitro propagation experiments, the final concentration of DMSO was systematically adjusted to 0.1%.
as §1, §2
(§4) We evaluated the anti-HCV activity of the 10 atranorin-related compounds, using a virus grown in cell culture (HCVcc) with a modification of its genome resulting in expression of the Renilla luciferase reporter gene. […] These two compounds are known to interfere with the entry and replication steps of viral cycle, respectively. […] The first experimental procedure used involved the preincubation of human hepatic Huh-7.5.1 cells for 1 h with various doses of the molecules. The cells were then cultured in the presence of both the molecules tested and the virus, for an additional 48 h. At the end of the incubation period, we assessed cell viability and viral replication. This protocol made it possible to test the effects of molecules on both virus entry and replication.

Huh-7.5.1 cells [2] = test: in vitro; type: cell-based, human; conditions: for Effect on cell viability signal: high doses, up to 100 μM
Experimental: as §3, §1, §2, §4

HCVcc [3] = test: Targeted stage of HCV life cycle: compounds present during inoculation (I), replication (R) or both (I/R), luciferase readout; type: cell-based, hepatitis C virus; conditions: for Inhibition profile / step of HCV lifecycle targeted: compounds present during I (17 h), R (30 h) or I/R
Experimental: (§5) An experimental procedure was designed to determine the inhibitor class (entry or replication) to which compounds 1, 5 and 6 belonged. HCVcc were added to the cell culture during a limited time window (around 17 h). The cells were then washed to eliminate viruses from the inoculum and viral replication was allowed to take place for an additional 30 h. The selected compounds were present in the culture medium during inoculation (I), replication (R), or both these phases (inoculation and replication, I/R). […] In terms of antiviral activity, we expected to obtain two inhibition profiles for the luminescence signal, depending on the step of the viral lifecycle targeted by the drug (Fig. 4B). […] The inhibitory effect on the establishment of replication (R conditions) observed at high doses was probably due principally to the inhibition of new infection cycles initiated by virions produced by cells infected with the inoculum. A different profile was obtained for telaprevir. […] Its presence in the medium from inoculation onwards prevented the priming of the infection process at the viral polyprotein maturation step, which normally takes place after the translation of the HCV genome issued from the infecting virus. This maturation step is also repeated during the replication phase, for amplification of the viral genome and virion assembly. It is therefore not surprising that inhibition was strongest when telaprevir was present throughout the viral lifecycle (I/R), as there was probably an additive effect. […] The chemical group in this position seems to influence not only the potency of the molecule, but also its mechanism of action. Further studies are required to identify the processes involved because, for example, we cannot rule out a role in the inhibition of viral entry for compounds 5 and 6, even though they appeared to act as replication inhibitors in this experiment. It could be hypothesized that the replacement of a methyl or hydroxymethyl by an aldehyde group in position C-3 would lead to a loss of replication inhibition, but maintenance of the ability to inhibit viral entry.
(§6) Fig 4 Effects of compounds 1, 5 and 6 on cell viability and HCV propagation in vitro. One day after seeding at 50,000 cells/cm^2, Huh-7.5.1 cells were infected with HCVcc at a MOI ~ 0.03 for 17 h (inoculation phase: I). The inoculum was removed and cell cultures were washed before the addition of new medium and incubation for an additional 30 h (replication phase: R). Compounds were present at various concentrations either during both phases (I/R: black circles and solid lines) or during only one phase (I: black squares and dotted lines; R: black triangles and dashed lines). (A) Cell viability and (B) viral replication were assessed at the end of the incubation period. Results are expressed as percentages (mean ± SEM; n = 3) of the mean values obtained for the respective control cultures, in which cells were incubated with vehicle (0.1% DMSO) alone.

Huh-7.5.1 cells [4] = test: Cell viability in the inoculation/replication (I, R, I/R) procedure; type: cell-based, human
Experimental: as §5
as §6, with “Compounds were present at various concentrations either during both phases (I/R: black circles and solid lines) or during only one phase (I: black squares and dotted lines; R: black triangles and dashed lines).” left out

[5] = Stability of the molecule in solution; type: physicochemical; conditions: even if dissolved immediately before use
[6] = percentage of vehicle control, n = 3

Row | Compound | IC50 (HCVcc [1]) [µM] | CC50 at 48 h (in vitro) [µM] | viability at 48 h, 50 µM (in vitro; n = 3) [%] | viability at 48 h, 100 µM (in vitro; n = 3) [%] | Effect on cell viability signal (Huh-7.5.1 cells [2]; 48 h) | Inhibition profile / step of HCV lifecycle targeted (HCVcc [3]) | other results
1 | COC(=O)c1c(C)cc(OC(=O)c2c(C)cc(O)c(C=O)c2O)c(C)c1O [Compound 1, atranorin] | 22.3 ± 8 | > 100 | 95.9 ± 4.5 | 91.8 ± 5.9 | minimal loss of signal | inhibited only viral entry; also recorded: effects similar to those of erlotinib | Inhibitory effect when present only during inoculation (HCVcc [3]; I condition only, up to 100 μM): no inhibitory effect; Effect on cell viability (Huh-7.5.1 cells [4]; regardless of incubation conditions (I, R, I/R)): no effect on cell viability
2 | COC(=O)c1c(C)cc(OC(=O)c2c(C)cc(O)c(/C=C/C(C)=O)c2O)c(C)c1O [Compound 2, (E)-[3-hydroxy-4-(methoxycarbonyl)-2,5-dimethylphenyl]-2,4-dihydroxy-6-methyl-3-(3-oxobut-1-en-yl) benzoate] | 64.5 ± 26.5 | > 100 | 110 ± 5.9 | 107 ± 5.7 |  |  | Stability in solution [5]: instability of the molecule in solution; melting point: 234 to 236 °C (dec.)
3 | COC(=O)c1c(C)cc(OC(=O)c2c(C)cc(O)cc2O)c(C)c1O [Compound 3, methyl-3’-methyllecanorate] | 25.4 ± 1.7 | 82 | 52.7 ± 0.6 | 63.1 ± 2.9 |  |  | SI (selectivity index) (HCVcc [1]; ratio of CC50 to IC50): 3.2; CC50 (Huh-7.5.1 cells [2]; half-maximal cytotoxicity concentration, Huh-7.5.1 cells, 48 h, mean ± SEM, maximum dose tested 100 μM): 81.9 ± 13.6 µM
4 | COC(=O)c1c(C)cc(OC(=O)c2c(C)cc(O)c(C(=O)O)c2O)c(C)c1O [Compound 4, cladonioidesin] | > 100 | > 100 | 104 ± 2.5 | 90.4 ± 3.4 | minimal loss of signal |  | Anti-HCV activity (HCVcc [1]): inactive
5 | COC(=O)c1c(C)cc(OC(=O)c2c(C)cc(O)c(C)c2O)c(C)c1O [Compound 6, Methyl-4-O-demethylbarbatate] | 13.3 ± 1.6 | > 100 | 145 ± 3.2 | 81.6 ± 20.6 |  | interfered with viral replication; also recorded: profiles typical of replication inhibitors | Concentration above which cytotoxic effects emerged (Huh-7.5.1 cells [2]; decrease of the viability signal): greater than 50 μM; Concentration of the peak of the higher viability signal (Huh-7.5.1 cells [2]; slightly higher viability signal at high doses, modest stimulation of cell proliferation): about 50 μM; Cytotoxicity at 100 μM (Huh-7.5.1 cells [4]; 100 μM, except in R conditions): induced some cytotoxicity
6 | COC(=O)c1c(C)cc(O)c(C)c1O [Compound 7, methyl-2,4-dihydroxy-3,6-dimethylbenzoate] | 50.6 ± 5 | > 100 | 101 ± 5.6 | 97.3 ± 6.2 |  |  | 
7 | COC(=O)c1c(C)cc(O)cc1O [Compound 8, methyl orsellinate] | ≥ 100 | > 100 | 106 ± 2.9 | 93.4 ± 4.2 | minimal loss of signal |  | Anti-HCV activity (HCVcc [1]): inactive
8 | Cc1cc(O)c(C=O)c(O)c1 [Compound 9, atranol] | 40.3 ± 0.6 | > 100 | 91.1 ± 3.5 | 78.7 ± 2.3 | minimal loss of signal |  | 
9 | COC(=O)c1c(C)cc(O)c(C=O)c1O [Compound 10, methyl haematommate] | 55.5 ± 7.9 | > 100 | 88.1 ± 5.5 | 72.2 ± 2 | minimal loss of signal |  | 
10 | C#Cc1cccc(Nc2ncnc3cc(OCCOC)c(OCCOC)cc23)c1 [Erlotinib, erlotinib, reference compound] | 0.64 ± 0.18 |  |  |  |  | most efficient if present at least during the initial interaction between cells and viruses | viability at 48 h, 10 µM (in vitro; [6]): 86.5 ± 5.1%; Effect on cell viability (Huh-7.5.1 cells [4]): small anti-proliferative effect
11 | CCC[C@H](NC(=O)[C@@H]1[C@H]2CCC[C@H]2CN1C(=O)[C@@H](NC(=O)[C@@H](NC(=O)c1cnccn1)C1CCCCC1)C(C)(C)C)C(=O)C(=O)NC1CC1 [Telaprevir, telaprevir, reference compound] | 0.18 ± 0.02 |  |  |  |  | inhibitory action regardless of the experimental conditions (I or R) | viability at 48 h, 5 µM (in vitro; 5 μM (controls), percentage of vehicle control, n = 3): 101.9 ± 0.9%; viability at 48 h, 10 µM (in vitro; [6]): 94.1 ± 4%
